Reference: ChEMBL document CHEMBL5576047, “Synthesis of a new 2-prenylated quinoline as potential drug for metabolic syndrome with pan-PPAR activity and anti-inflammatory effects” (Bioorg Med Chem Lett, 2024)

Assays:
Type in all cases: cell-based
[1] = target: T1, Peroxisome proliferator-activated receptor alpha (Homo sapiens, UniProt Q07869); assay: Agonist activity at GAL4-tagged human PPARalpha transfected in African green monkey COS7 cells assessed as transcriptional activation by measuring effective concentration incubated for 24 hrs by luciferase assay
T1 sequence (Q07869 whole entry): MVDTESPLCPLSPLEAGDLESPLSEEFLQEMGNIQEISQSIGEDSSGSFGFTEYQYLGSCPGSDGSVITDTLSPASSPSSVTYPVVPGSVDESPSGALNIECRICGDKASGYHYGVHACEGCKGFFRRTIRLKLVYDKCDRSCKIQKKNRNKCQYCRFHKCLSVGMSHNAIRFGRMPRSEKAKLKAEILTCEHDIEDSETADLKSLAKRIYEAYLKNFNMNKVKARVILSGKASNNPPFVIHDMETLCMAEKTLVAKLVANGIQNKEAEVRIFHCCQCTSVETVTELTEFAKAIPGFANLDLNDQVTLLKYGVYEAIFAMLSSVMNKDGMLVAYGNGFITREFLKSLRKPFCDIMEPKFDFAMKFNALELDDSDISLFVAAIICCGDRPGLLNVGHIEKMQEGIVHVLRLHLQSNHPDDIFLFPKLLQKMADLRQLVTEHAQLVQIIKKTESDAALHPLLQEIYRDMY

[2] = target: T2, Peroxisome proliferator-activated receptor gamma (Homo sapiens, UniProt P37231); assay: Agonist activity at GAL4-tagged human PPARgamma transfected in African green monkey COS7 cells assessed as transcriptional activation by measuring effective concentration incubated for 24 hrs by luciferase assay
T2 sequence (P37231 whole entry): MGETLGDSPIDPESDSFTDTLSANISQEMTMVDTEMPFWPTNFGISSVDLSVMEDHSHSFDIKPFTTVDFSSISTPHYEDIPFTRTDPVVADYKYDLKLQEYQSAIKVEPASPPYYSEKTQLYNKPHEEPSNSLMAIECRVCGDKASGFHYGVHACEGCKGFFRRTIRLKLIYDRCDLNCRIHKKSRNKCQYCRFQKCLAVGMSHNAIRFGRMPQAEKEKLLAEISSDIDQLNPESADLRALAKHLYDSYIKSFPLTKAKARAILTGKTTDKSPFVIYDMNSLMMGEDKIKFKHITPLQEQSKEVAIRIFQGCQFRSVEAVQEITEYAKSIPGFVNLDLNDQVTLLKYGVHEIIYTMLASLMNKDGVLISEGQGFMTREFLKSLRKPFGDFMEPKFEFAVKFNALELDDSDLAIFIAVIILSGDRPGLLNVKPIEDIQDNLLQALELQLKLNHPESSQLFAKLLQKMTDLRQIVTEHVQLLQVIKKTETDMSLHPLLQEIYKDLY

[3] = target: T3, Peroxisome proliferator-activated receptor delta (Homo sapiens, UniProt Q03181); assay: Agonist activity at GAL4-tagged human PPARbeta/delta transfected in African green monkey COS7 cells assessed as transcriptional activation by measuring effective concentration incubated for 24 hrs by luciferase assay
T3 sequence (Q03181 whole entry): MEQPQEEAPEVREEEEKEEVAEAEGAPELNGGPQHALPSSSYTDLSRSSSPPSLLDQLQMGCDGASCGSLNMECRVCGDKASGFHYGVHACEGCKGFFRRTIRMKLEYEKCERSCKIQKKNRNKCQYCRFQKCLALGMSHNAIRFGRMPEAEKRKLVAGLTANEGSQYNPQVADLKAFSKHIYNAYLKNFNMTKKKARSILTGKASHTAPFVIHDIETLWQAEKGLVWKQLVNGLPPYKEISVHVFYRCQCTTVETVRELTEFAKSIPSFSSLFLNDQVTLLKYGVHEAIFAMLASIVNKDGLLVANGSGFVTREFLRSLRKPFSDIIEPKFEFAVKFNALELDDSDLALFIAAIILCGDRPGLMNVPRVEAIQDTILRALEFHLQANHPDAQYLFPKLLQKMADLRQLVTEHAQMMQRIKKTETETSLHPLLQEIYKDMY

Compound	EC50 ([1]; cos7)	EC50 ([2]; cos7)	EC50 ([1]; read-out: EC50)	also measured
CCOC(=O)/C(=C/CCC1(C)CCc2cc(OCc3ccccc3)ccc2O1)OCC(F)(F)F (centres undefined)	Not Active	Not Active	–	–
CCOC(=O)CC/C(C)=C/CCC1(C)CCc2cc(OCc3ccccc3)ccc2O1 (centres undefined)	–	–	2950 nM	EC50 ([2]; read-out: EC50): 1590 nM
CCOC(=O)CC/C(C)=C/CCc1ccc2cc(OCc3ccccc3)ccc2n1	–	–	3200 nM	EC50 [3]: 1510 nM
Cc1cc(SCc2sc(-c3ccc(C(F)(F)F)cc3)nc2C)ccc1OCC(=O)O [GW501516]	Not Active	–	–	–
Cc1cccc(Nc2cc(Cl)nc(SCC(=O)O)n2)c1C [PIRINIXIC ACID]	–	Not Active	–	–
CN(CCOc1ccc(CC2SC(=O)NC2=O)cc1)c1ccccn1 (centres undefined) [ROSIGLITAZONE]	Not Active	–	–	–
